Columns and labels:
Obese Zucker rats [1] = assay: In vivo assessment in obese Zucker rats: vascular inflammation markers (MCP-1, CRP, RBP-4, leptin, ICAM, adiponectin); conditions: obese Zucker rats, daily 400 μg Cr(III)/kg, 8 weeks, mean; for Adiponectin / CRP / MCP-1: plasma, ELISA
Obese Zucker rats [2] = assay: In vivo assessment in obese Zucker rats: clinical chemistry (AP, BUN, CRT, AST, ALT); conditions: obese Zucker rats; mean ± SE
Obese Zucker rats [3] = assay: In vivo assessment in obese Zucker rats: key biological parameters (fasting glucose, HbA1c, vitamin C, GSH, RBC lipid peroxidation); conditions: obese Zucker rats, daily 400 μg Cr(III)/kg, 8 weeks, mean; for RBC Lipid Peroxidase: malondialdehyde by thiobarbituric acid; for Fasting Glucose: fasted overnight
Obese Zucker rats [4] = assay: In vivo assessment in obese Zucker rats: blood lipid profile (total cholesterol, triglycerides, HDL); conditions: daily 400 μg Cr(III)/kg, 8 weeks, mean
Obese Zucker rats [5] = assay: In vivo assessment in obese Zucker rats: other vascular inflammation markers (cAMP, TNFα, IL-6, OxyDNA); conditions: obese Zucker rats, daily 400 μg Cr(III)/kg, 8 weeks, mean ± SE; for OxyDNA: oxidative DNA damage

Row | Compound | Leptin (Obese Zucker rats [1]) | RBP-4 (Obese Zucker rats [1]) | Adiponectin (Obese Zucker rats [1]) | CRP (Obese Zucker rats [1]) | MCP-1 (Obese Zucker rats [1]) | ALT (Alanine Aminotransferease) (Obese Zucker rats [2]) | AP (Alkaline phosphatase) (Obese Zucker rats [2]) | AST (Aspartate Aminotransferase) (Obese Zucker rats [2]) | Anion Gap (Obese Zucker rats [2]) | BUN (Blood Urea Nitrogen) (Obese Zucker rats [2]) | BUN/CRT Ratio (Obese Zucker rats [2]) | CRT (Creatinine) (Obese Zucker rats [2]) | Total Bilirubin (Obese Zucker rats [2]) | RBC Lipid Peroxidase (Obese Zucker rats [3]) | Fasting Glucose (Obese Zucker rats [3]) | GSH (Obese Zucker rats [3]) | HbA1c (Obese Zucker rats [3]) | HDL (Obese Zucker rats [4]) | Total Chol/HDL (Obese Zucker rats [4]) | Total Cholesterol (Obese Zucker rats [4]) | also measured
1 | CCC(=O)[O-].CCC(=O)[O-].CCC(=O)[O-].[Cr+3] [CrProp, Chromium Propionate, reference compound] | 393.47 pg/mL | 49851.91 ng/mL | 12903.52 ng/mL | 820.04 ng/mL | 4497.83 pg/mL | 207.00 u/L | 32.20 u/L | 347.25 u/L | 29.20 | 22.25 mg/dL | 53.40 | 0.40 mg/dL | 0.10 mg/dL | 2.18 nmol/mL | 549.49 mg/dL | 4.76 µmol/g | 16.90% | 64.19 mg/dL | 2.68 ratio | 170.56 mg/dL | Triglyceride (Obese Zucker rats [4]): 456.14 mg/dL; IL-6 (Obese Zucker rats [5]): 90.50 ± 14.02 pg/mL; TNFα (Obese Zucker rats [5]): 41.14 ± 10.06 pg/mL; cAMP (Obese Zucker rats [5]): 26.95 ± 1.13 pmol/mL; OxyDNA (Obese Zucker rats [5]): 47.19 ± 5.07 ng/mL
2 | Chromium Triphenylalanine [Cr(Phe)3, reference compound] | 387.92 pg/mL | 48555.98 ng/mL | 11243.47 ng/mL | 533.12 ng/mL | 2064.89 pg/mL | 186.29 u/L | 30.00 u/L | 276.43 u/L | 29.00 | 20.71 mg/dL | 52.14 | 0.40 mg/dL | 0.10 mg/dL | 2.01 nmol/mL | 549.70 mg/dL | 4.50 µmol/g | 15.04% | 60.82 mg/dL | 2.84 ratio | 169.68 mg/dL | Triglyceride (Obese Zucker rats [4]): 467.04 mg/dL; IL-6 (Obese Zucker rats [5]): 89.82 ± 8.55 pg/mL; TNFα (Obese Zucker rats [5]): 15.92 ± 7.76 pg/mL; cAMP (Obese Zucker rats [5]): 29.62 ± 1.01 pmol/mL; OxyDNA (Obese Zucker rats [5]): 53.11 ± 4.76 ng/mL
3 | Chromium Tryptophanate [CrTrp] | 601.72 pg/mL | 60593.24 ng/mL | 11122.93 ng/mL | 609.82 ng/mL | 2578.59 pg/mL | 124.29 u/L | 30.00 u/L | 237.43 u/L | 30.14 | 17.43 mg/dL | 45.86 | 0.39 mg/dL | 0.10 mg/dL | 1.78 nmol/mL | 402.77 mg/dL | 4.54 µmol/g | 14.16% | 60.54 mg/dL | 3.46 ratio | 208.09 mg/dL | Triglyceride (Obese Zucker rats [4]): 921.22 mg/dL; IL-6 (Obese Zucker rats [5]): 86.62 ± 6.81 pg/mL; TNFα (Obese Zucker rats [5]): 36.61 ± 14.89 pg/mL; cAMP (Obese Zucker rats [5]): 20.03 ± 0.96 pmol/mL; OxyDNA (Obese Zucker rats [5]): 45.14 ± 2.77 ng/mL
